{"source": "patent US9434610B2", "about": "“HPMA—docetaxel conjugates and uses therefore” (REXAHN PHARMACEUTICALS, INC., priority 2008, dated 2016)", "key": {"[1]": {"system": "PANC-1 (pancreas)", "test": "In vitro cell proliferation (SRB) assay, PANC-1", "format": "cell-based", "conditions": "Homo sapiens, 96 hours, drug equivalent", "method": "(§1) Cancer cell lines to determine the effect of HPMA-drug conjugates were obtained from the following sources: Human MDA-MB-231 (breast), HCT116 (colon) and PANC-1 (pancreas), from the American Type Culture Collection (ATCC) (Manassas, Va.). UMRC2 (kidney) from United States National Cancer Institute (Bethesda, Md.). Cells were maintained in Dulbecco's modified Eagle's medium (“DMEM”, Invitrogen) supplemented with 10% FBS, P/S and 10 mM HEPES. All cells were incubated at 37° C. under humidified 5% CO2.\n(§2) The growth inhibition assay of HPMA-drug conjugates against human cancer cell lines was performed using the Sulforhodamine B (“SRB”) method (Skehan et al., J. National Cancer Institute, 82: 1107-1112 (1990)). […] After 5 minutes agitation in 10 mM Tris solution, the absorbance of each well was measured at 530 nm using Benchmark Plus Microplate reader (Bio-Rad Laboratories, Hercules, Calif.). The absorbance value provides a direct measure of the number of live cells post-treatment with HPMA copolymer-drug conjugates.\n(§3) To translate the OD530 values into the number of live cells in each well, the OD530 values were compared to those on standard OD530-versus-cell number curves generated for each cell line. The percent survival was calculated using the formula: % Survival=live cell number[test]/live cell number[control]×100\n(§4) The IC50 values were calculated by non-linear regression analysis."}, "[2]": {"system": "MDA-MB-231 (breast)", "test": "In vitro cell proliferation (SRB) assay, MDA-MB-231", "format": "cell-based", "conditions": "Homo sapiens, 96 hours, drug equivalent", "method": "as §1, §2, §3, §4"}, "[3]": {"system": "UMRC2 (kidney)", "test": "In vitro cell proliferation (SRB) assay, UMRC2", "format": "cell-based", "conditions": "Homo sapiens, 96 hours, drug equivalent", "method": "as §1, §2, §3, §4"}, "[4]": {"system": "HCT116 (colon)", "test": "In vitro cell proliferation (SRB) assay, HCT116", "format": "cell-based", "conditions": "Homo sapiens, HCT-116, 96 hours, drug equivalent", "method": "as §1, §2, §3, §4"}, "[5]": {"target": "mucin-1 (Homo sapiens, UniProt P15941)", "sequence (P15941 24-1255)": "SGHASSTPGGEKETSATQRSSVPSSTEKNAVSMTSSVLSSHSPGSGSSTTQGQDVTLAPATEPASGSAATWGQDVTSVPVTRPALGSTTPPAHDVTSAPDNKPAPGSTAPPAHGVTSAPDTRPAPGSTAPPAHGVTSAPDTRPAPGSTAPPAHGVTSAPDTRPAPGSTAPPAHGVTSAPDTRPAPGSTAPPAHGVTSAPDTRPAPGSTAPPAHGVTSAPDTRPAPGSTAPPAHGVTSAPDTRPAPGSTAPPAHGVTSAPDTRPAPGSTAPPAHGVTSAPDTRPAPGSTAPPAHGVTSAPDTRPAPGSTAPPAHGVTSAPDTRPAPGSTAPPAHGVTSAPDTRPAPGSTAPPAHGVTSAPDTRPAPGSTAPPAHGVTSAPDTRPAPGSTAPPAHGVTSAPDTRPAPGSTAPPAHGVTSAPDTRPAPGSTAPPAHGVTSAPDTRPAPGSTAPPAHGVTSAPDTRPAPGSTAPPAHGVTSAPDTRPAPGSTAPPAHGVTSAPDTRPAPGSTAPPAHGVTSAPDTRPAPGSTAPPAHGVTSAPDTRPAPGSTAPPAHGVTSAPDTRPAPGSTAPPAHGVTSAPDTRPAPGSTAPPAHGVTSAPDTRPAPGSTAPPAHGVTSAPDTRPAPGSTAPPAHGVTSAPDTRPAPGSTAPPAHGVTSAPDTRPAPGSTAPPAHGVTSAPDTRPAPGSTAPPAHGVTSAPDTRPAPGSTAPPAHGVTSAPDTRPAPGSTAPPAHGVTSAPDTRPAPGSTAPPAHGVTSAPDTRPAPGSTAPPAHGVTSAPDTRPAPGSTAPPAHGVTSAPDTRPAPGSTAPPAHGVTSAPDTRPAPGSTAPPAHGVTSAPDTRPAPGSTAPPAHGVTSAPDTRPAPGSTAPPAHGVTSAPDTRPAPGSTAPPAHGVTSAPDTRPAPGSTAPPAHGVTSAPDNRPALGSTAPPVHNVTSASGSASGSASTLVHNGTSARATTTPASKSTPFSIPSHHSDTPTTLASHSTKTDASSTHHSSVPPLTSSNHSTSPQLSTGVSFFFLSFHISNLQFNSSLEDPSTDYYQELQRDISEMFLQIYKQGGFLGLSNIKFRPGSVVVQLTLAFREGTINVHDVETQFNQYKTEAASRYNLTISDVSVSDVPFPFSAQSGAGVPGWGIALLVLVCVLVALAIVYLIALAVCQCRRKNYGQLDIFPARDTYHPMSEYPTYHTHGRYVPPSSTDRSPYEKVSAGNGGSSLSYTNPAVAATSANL", "conditions": "specific ligand of mucin-1; cited from earlier work"}, "[6]": {"target": "glycosylphosphatidylinositol-linked folate receptor (FR)", "conditions": "high affinity folate receptor; cited from earlier work"}, "[7]": {"target": "T1, reduced folate carrier (Homo sapiens, UniProt P41440)", "T1 sequence (P41440 1-591)": "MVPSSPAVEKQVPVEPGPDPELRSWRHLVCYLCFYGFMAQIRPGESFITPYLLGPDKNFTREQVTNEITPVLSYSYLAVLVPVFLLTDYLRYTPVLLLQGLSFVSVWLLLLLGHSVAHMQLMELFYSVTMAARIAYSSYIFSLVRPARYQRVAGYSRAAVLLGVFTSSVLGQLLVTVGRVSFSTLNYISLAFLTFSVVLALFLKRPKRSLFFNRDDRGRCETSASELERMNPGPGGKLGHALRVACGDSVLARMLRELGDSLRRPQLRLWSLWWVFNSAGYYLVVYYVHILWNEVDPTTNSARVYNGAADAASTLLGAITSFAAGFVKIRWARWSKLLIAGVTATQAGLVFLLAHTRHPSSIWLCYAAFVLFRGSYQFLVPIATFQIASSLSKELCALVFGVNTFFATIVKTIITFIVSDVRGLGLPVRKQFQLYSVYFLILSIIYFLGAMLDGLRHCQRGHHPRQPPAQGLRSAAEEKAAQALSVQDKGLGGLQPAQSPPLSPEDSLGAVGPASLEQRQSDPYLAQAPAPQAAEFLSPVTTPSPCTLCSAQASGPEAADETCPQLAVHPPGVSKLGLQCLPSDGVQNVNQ", "conditions": "low affinity reduced folate carrier, cellular uptake; cited from earlier work"}}, "data": [{"compound": "Nc1ccn([C@@H]2O[C@H](CO)[C@@H](O)C2(F)F)c(=O)n1", "note": "[Gemcitabine]", "values": [{"measurement": "IC50", "setting": "[1]", "result": 0.59, "unit": "µM"}, {"measurement": "IC50", "setting": "[2]", "result": 0.22, "unit": "µM"}, {"measurement": "IC50", "setting": "[3]", "result": 0.29, "unit": "µM"}, {"measurement": "IC50", "setting": "[4]", "result": 0.056, "unit": "µM"}]}, {"compound": "CC(=O)O[C@@]12CO[C@@H]1C[C@H](O)[C@@]1(C)C(=O)[C@H](O)C3=C(C)[C@@H](OC(=O)[C@H](O)[C@@H](NC(=O)OC(C)(C)C)c4ccccc4)C[C@@](O)([C@@H](OC(=O)c4ccccc4)[C@H]21)C3(C)C", "note": "[Docetaxel]", "values": [{"measurement": "IC50", "setting": "[1]", "result": 0.0012, "unit": "µM"}, {"measurement": "IC50", "setting": "[2]", "result": 0.00077, "unit": "µM"}, {"measurement": "IC50", "setting": "[3]", "result": 0.026, "unit": "µM"}, {"measurement": "IC50", "setting": "[4]", "result": 0.00055, "unit": "µM"}]}, {"compound": "synthetic peptide YCAREPPTRTFAYWG (SEQ ID NO: 9), specific ligand of mucin-1 [EPPT1]", "values": [{"measurement": "Kd", "setting": "[5]", "result": 20000, "unit": "nM"}]}, {"compound": "Nc1nc2ncc(CNc3ccc(C(=O)N[C@@H](CCC(=O)O)C(=O)O)cc3)nc2c(=O)[nH]1", "note": "[folates, Folic acid]", "values": [{"measurement": "Kd", "setting": "[6]", "result": "~0.1", "unit": "nM"}, {"measurement": "Km", "setting": "[7]", "result": "~1", "unit": "µM"}]}]}
